The values that follow come from patent publication US11472795B2, “1H-indazole-3-carboxamide compounds as glycogen synthase kinase 3 beta inhibitors” (AZIENDE CHIMICHE RIUNITE ANGELINI FRANCESCO—A.C.R.A.F. …, priority 2018, dated 2022).

Bounds are passed on as bounds.

The target of one data set is human GSK-3β (Homo sapiens (Human), UniProt P49841). In words: Test I - Activity on human GSK-3β (LANCE substrate phosphorylation). Type of data set: biochemical. Conditions: human recombinant GSK-3β, 90 minutes at 22° C., five concentrations 10 μM to 1 nM, duplicate; read-out: GSK-33 IC50. On the procedure: Human recombinant enzyme GSK-3β was incubated for 90 minutes at 22° C. in the presence of compounds or vehicle in a reaction buffer containing ATP plus 100 nM unphosphorylated specific substrate peptide (Ulight-[…]-amide). Substrate phosphorylation was measured by LANCE technology (PerkinElmer, CT, USA).
Chain of human GSK-3β (P49841 whole entry): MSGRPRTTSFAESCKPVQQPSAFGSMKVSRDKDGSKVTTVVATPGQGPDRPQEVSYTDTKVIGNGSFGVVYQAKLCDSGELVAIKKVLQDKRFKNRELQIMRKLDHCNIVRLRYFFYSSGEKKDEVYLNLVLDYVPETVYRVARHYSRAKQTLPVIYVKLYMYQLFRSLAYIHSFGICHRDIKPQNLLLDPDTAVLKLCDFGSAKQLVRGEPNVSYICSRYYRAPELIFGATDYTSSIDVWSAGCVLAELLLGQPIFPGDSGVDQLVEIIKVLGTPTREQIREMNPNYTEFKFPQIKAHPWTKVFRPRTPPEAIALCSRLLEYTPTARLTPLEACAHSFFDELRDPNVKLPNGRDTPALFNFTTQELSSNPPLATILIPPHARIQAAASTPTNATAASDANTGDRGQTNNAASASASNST

The target of the next data set is hERG ion channel (Homo sapiens (Human), UniProt Q12809). The method, then: (2006), Expert Opin. Ther. Targets, 10 (2): 230-241 using the recombinant human cell line CHO-K1, which stably expresses the hERG ion channel.
Chain of hERG ion channel (Q12809 whole entry): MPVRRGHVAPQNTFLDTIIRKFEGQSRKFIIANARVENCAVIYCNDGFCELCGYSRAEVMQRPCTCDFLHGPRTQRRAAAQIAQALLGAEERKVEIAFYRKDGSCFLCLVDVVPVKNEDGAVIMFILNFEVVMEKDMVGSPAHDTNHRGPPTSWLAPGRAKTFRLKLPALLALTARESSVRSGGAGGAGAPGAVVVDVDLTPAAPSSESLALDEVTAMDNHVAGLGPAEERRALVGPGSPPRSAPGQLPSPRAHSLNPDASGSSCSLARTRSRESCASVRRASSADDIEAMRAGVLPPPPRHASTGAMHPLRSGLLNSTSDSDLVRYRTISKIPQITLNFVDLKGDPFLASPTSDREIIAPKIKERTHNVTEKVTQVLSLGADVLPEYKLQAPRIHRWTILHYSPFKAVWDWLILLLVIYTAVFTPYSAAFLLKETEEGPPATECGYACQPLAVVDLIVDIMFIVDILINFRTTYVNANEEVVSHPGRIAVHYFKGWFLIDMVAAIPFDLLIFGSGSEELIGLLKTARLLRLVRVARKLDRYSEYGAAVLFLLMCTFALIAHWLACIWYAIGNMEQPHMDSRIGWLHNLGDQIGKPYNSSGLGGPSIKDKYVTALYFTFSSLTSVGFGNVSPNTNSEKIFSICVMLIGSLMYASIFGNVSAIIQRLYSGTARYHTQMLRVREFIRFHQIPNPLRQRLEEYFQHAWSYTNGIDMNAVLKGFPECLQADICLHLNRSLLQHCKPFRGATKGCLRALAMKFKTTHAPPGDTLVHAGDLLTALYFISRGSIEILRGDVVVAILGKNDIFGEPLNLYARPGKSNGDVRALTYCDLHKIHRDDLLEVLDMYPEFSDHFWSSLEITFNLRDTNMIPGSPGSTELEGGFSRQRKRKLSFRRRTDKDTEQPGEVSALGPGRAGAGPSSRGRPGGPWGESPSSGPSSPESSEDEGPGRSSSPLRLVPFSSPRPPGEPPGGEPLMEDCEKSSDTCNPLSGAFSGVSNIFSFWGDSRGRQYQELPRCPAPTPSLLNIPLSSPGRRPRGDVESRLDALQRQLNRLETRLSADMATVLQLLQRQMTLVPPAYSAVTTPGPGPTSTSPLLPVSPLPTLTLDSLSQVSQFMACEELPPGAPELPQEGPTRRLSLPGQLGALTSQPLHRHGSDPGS
The degree of inhibition (%) was obtained by measuring the tail current amplitude, which is induced by a one second test pulse to −40 mV after a two second pulse to +20 mV, before and after drug incubation (the difference current was normalized to control and multiplied by 100 to obtain the percent of inhibition). […] The concentration response relationship of each compound was constructed from the percentage reductions of current amplitude by sequential concentrations.

As for `CC(C)Oc1cncc(-c2ccc3[nH]nc(C(=O)NCC4CCOC4)c3c2)c1` (centres unmarked) [Compound 4, 5-(5-Isopropoxypyridin-3-yl)-N-((tetrahydrofuran-3-yl)methyl)-1H-indazole-3-carboxamide], on human GSK-3β, the IC50 is 17 nM. Moreover, on hERG ion channel, the IC50 was 6.2 µM and the “hERG/GSK-3β Ratio” value came out at 365.
For the compound `COCc1cncc(-c2ccc3[nH]nc(C(=O)NCC4CCS(=O)(=O)C4)c3c2)c1` (centres unmarked) [Compound 5], the IC50 is 16 nM at human GSK-3β and > 100 µM against hERG ion channel.
The matching figures for `O=C(NC1CCS(=O)(=O)C1)c1n[nH]c2ccc(-c3cncc(CO)c3)cc12` (centres unmarked) [Compound 6, 5-(5-(Hydroxymethyl)pyridin-3-yl)-N-(1,1-dioxidotetrahydrothiophen-3-yl)-1H-indazole-3-carboxamide]: 17 nM and > 100 µM.
Regarding `CC(C)Oc1cncc(-c2ccc3[nH]nc(C(=O)NCC4CCS(=O)(=O)C4)c3c2)c1` (centres unmarked) [Compound 11], on human GSK-3β, the IC50 is 12 nM. Besides, on hERG ion channel, it took 5.4 µM to reach half-maximal inhibition (IC50) and the “hERG/GSK-3β Ratio” value stood at 450.
For the compound `O=C(NCC1CCCCO1)c1n[nH]c2ccc(-c3cccc(F)c3F)cc12` (centres unmarked) [Compound 14, 5-(2,3-Difluorophenyl)-N-((tetrahydro-2H-pyran-2-yl)methyl)-1H-indazole-3-carboxamide], the IC50 on human GSK-3β is 436 nM; at hERG ion channel it was > 100 µM.
As for `CN(C)Cc1cncc(-c2ccc3[nH]nc(C(=O)NCC4CCOCC4)c3c2)c1` [Compound 16, 5-(5-((Dimethylamino)methyl)pyridin-3-yl)-N-((tetrahydro-2H-pyran-4-yl)methyl)-1H-indazole-3-carboxamide], on human GSK-3β, the IC50 turned out to be 23 nM. On hERG ion channel, the IC50 turned out to be 44 µM and the “hERG/GSK-3β Ratio” value was 1,913.
Take `O=C(NCC1CCOCC1)c1n[nH]c2ccc(-c3cncc(CN4CCCC4)c3)cc12` [Compound 17, 5-(5-(Pyrrolidin-1-ylmethyl)pyridin-3-yl)-N-((tetrahydro-2H-pyran-4-yl)methyl)-1H-indazole-3-carboxamide]: the IC50 at human GSK-3β amounted to 17 nM. Moreover, at hERG ion channel, the IC50 was 6.7 µM and the “hERG/GSK-3β Ratio” value was determined as 394.
The like results for `O=C(NCC1CCOCC1)c1n[nH]c2ccc(-c3cnccc3CN3CCCC3)cc12` [Compound 19, 5-(4-(Pyrrolidin-1-ylmethyl)pyridin-3-yl)-N-((tetrahydro-2H-pyran-4-yl)methyl)-1H-indazole-3-carboxamide] were, in that order, 140 nM, 16 µM and 114.
Turning to `O=C(NCC1CCOCC1)c1n[nH]c2ccc(-c3cnccc3CN3CCOCC3)cc12` [Compound 20, 5-(4-(Morpholinomethyl)pyridin-3-yl)-N-((tetrahydro-2H-pyran-4-yl)methyl)-1H-indazole-3-carboxamide carboxamide], the half-inhibitory concentration (IC50) on human GSK-3β came to 18.5 nM. Moreover, on hERG ion channel, the IC50 turned out to be 46 µM and the “hERG/GSK-3β Ratio” value is reported as 2,487.
The matching figures for `CN(C)Cc1ccncc1-c1ccc2[nH]nc(C(=O)NCC3CCOCC3)c2c1` [Compound 21, 5-(4-((Dimethylamino)methyl)pyridin-3-yl)-N-((tetrahydro-2H-pyran-4-yl)methyl)-1H-indazole-3-carboxamide]: 220 nM, 40 µM and 182.
The like results for `O=C(NCC1CCOCC1)c1n[nH]c2ccc(-c3cnccc3CN3CCNCC3)cc12` [Compound 24, 5-(4-(piperazin-1-ylmethyl)pyridin-3-yl)-N-((tetrahydro-2H-pyran-4-yl)methyl)-1H-indazole-3-carboxamide] were, in that order, 120 nM, 93.8 µM and 782.
The like results for `O=C(NCC1CCOCC1)c1n[nH]c2ccc(-c3cncc(CN4CCOCC4)c3)cc12` [Compound 27, 5-(5-(morpholinomethyl)pyridin-3-yl)-N-((tetrahydro-2H-pyran-4-yl)methyl)-1H-indazole-3-carboxamide] were, in that order, 13 nM, 3.5 µM and 269.
`CNCc1cncc(-c2ccc3[nH]nc(C(=O)NCC4CCOCC4)c3c2)c1` [Compound 28, 5-(5-((methylamino)methyl)pyridin-3-yl)-N-((tetrahydro-2H-pyran-4-yl)methyl)-1H-indazole-3-carboxamide]: the IC50 on human GSK-3β is 6 nM; on hERG ion channel, > 100 µM.

By IC50 is commonly meant the point on the concentration scale where inhibition reaches its midpoint.
